US20030068383A1, “Time release nutritional supplement” (priority 2001, published 2003)

Legend:
[1] = Acid damage to Ribose loaded into 1% cross-linked resin with boiling water; type: physicochemical; conditions: 5.9 grams Ribose
[2] = ingested dose, human body; cited from earlier work

| SMILES | Fate of Ribose within the resin matrix ([1]; 2 grams 1% cross-linked sulfonated resin, 10 grams water preheated to boiling) | Fate of Ribose within the resin matrix ([1]; 2 grams sulfonated resin ion exchanged with Li or K salt, 10 grams water) | Dose typically associated with side effects (diarrhea, gas, flatulence, nausea, stomach cramps) [2] |
| --- | --- | --- | --- |
| O=C[C@H](O)[C@H](O)[C@H](O)CO [Ribose, D-Ribose] | destroyed | active and useful |  |
| CN(CC(=O)O)C(=N)N [creatine, Creatine] |  |  | over 5 grams |
